In ChEMBL document CHEMBL1649456 (Antimicrob Agents Chemother, 2009):

How the values were obtained:
Coxiella burnetii [1] = test: Antimicrobial activity against compound-susceptible Coxiella burnetii Nine-Mile obtained from patient with acute Q fever infected in african green monkey Vero cells after 24 hrs by shell vial assay; format: functional
Coxiella burnetii [2] = test: Antimicrobial activity against compound-intermediate susceptible Coxiella burnetii Q212 obtained from patient with acute Q fever infected in african green monkey Vero cells after 24 hrs by shell vial assay; format: functional; details: Q212, 24 h
Coxiella burnetii [3] = test: Antimicrobial activity against compound-susceptible Coxiella burnetii Q212 obtained from patient with acute Q fever infected in african green monkey Vero cells after 24 hrs by shell vial assay; format: functional; details: Q212, 24 h
Coxiella burnetii [4] = test: Antimicrobial activity against compound-intermediate susceptible Coxiella burnetii isolate CP1 obtained from patient with acute Q fever infected in african green monkey Vero cells after 24 hrs by shell vial assay; format: functional; details: isolate CP1, 24 h
Coxiella burnetii [5] = test: Antimicrobial activity against compound-susceptible Coxiella burnetii isolate CP1 obtained from patient with acute Q fever infected in african green monkey Vero cells after 24 hrs by shell vial assay; format: functional; details: isolate CP1, 24 h
Coxiella burnetii [6] = test: Antimicrobial activity against compound-susceptible Coxiella burnetii isolate CP2 obtained from patient with acute Q fever infected in african green monkey Vero cells after 24 hrs by shell vial assay; format: functional; details: isolate CP2, 24 h
Coxiella burnetii [7] = test: Antimicrobial activity against compound-susceptible Coxiella burnetii isolate CP3 obtained from patient with acute Q fever infected in african green monkey Vero cells after 24 hrs by shell vial assay; format: functional; details: isolate CP3, 24 h
Coxiella burnetii [8] = test: Antimicrobial activity against compound-susceptible Coxiella burnetii isolate CP4 obtained from patient with acute Q fever infected in african green monkey Vero cells after 24 hrs by shell vial assay; format: functional; details: isolate CP4, 24 h
Coxiella burnetii [9] = test: Antimicrobial activity against compound-susceptible Coxiella burnetii isolate CP5 obtained from patient with acute Q fever infected in african green monkey Vero cells after 24 hrs by shell vial assay; format: functional; details: isolate CP5, 24 h
Coxiella burnetii [10] = test: Antimicrobial activity against compound-susceptible Coxiella burnetii isolate CP6 obtained from patient with acute Q fever infected in african green monkey Vero cells after 24 hrs by shell vial assay; format: functional; details: isolate CP6, 24 h
Coxiella burnetii [11] = test: Antimicrobial activity against compound-susceptible Coxiella burnetii isolate CP7 obtained from patient with acute Q fever infected in african green monkey Vero cells after 24 hrs by shell vial assay; format: functional; details: isolate CP7, 24 h
Coxiella burnetii [12] = test: Antimicrobial activity against compound-susceptible Coxiella burnetii isolate CP8 obtained from patient with acute Q fever infected in african green monkey Vero cells after 24 hrs by shell vial assay; format: functional; details: isolate CP8, 24 h
Vero = test: Cytotoxicity against african green monkey Vero cells at 4 ug/ml; format: cell-based; details: chlorocebus sabaeus
Coxiella burnetii [13] = test: Antimicrobial activity against compound-intermediate susceptible Coxiella burnetii isolate CP4 obtained from patient with acute Q fever infected in african green monkey Vero cells after 24 hrs by shell vial assay; format: functional; details: isolate CP4, 24 h

N[C@@H]1[C@H]2CN(c3nc4c(cc3F)c(=O)c(C(=O)O)cn4-c3ccc(F)cc3F)C[C@@H]12 [TROVAFLOXACIN]
2 µg/mL: MIC (Coxiella burnetii [3]) | MIC (Coxiella burnetii [5])
1 µg/mL: MIC (Coxiella burnetii [1]) | MIC (Coxiella burnetii [2]) | MIC (Coxiella burnetii [4]) | MIC (Coxiella burnetii [6]) | MIC (Coxiella burnetii [7]) | MIC (Coxiella burnetii [8]) | MIC (Coxiella burnetii [9]) | MIC (Coxiella burnetii [10]) | MIC (Coxiella burnetii [11]) | MIC (Coxiella burnetii [12])

CN(C)c1cc(NC(=O)CNC(C)(C)C)c(O)c2c1C[C@H]1C[C@H]3[C@H](N(C)C)C(O)=C(C(N)=O)C(=O)[C@@]3(O)C(O)=C1C2=O [TIGECYCLINE]
0.5 µg/mL: MIC (Coxiella burnetii [3]) | MIC (Coxiella burnetii [5])
Non-toxic: Activity (Vero)
0.25 µg/mL: MIC (Coxiella burnetii [1]) | MIC (Coxiella burnetii [2]) | MIC (Coxiella burnetii [4]) | MIC (Coxiella burnetii [6]) | MIC (Coxiella burnetii [7]) | MIC (Coxiella burnetii [8]) | MIC (Coxiella burnetii [9]) | MIC (Coxiella burnetii [10]) | MIC (Coxiella burnetii [11]) | MIC (Coxiella burnetii [12])

C[C@H]1c2cccc(O)c2C(=O)C2=C(O)[C@]3(O)C(=O)C(C(N)=O)=C(O)[C@@H](N(C)C)[C@@H]3[C@@H](O)[C@@H]21.O [DOXYCYCLINE]
2 µg/mL: MIC (Coxiella burnetii [3]) | MIC (Coxiella burnetii [5]) | MIC (Coxiella burnetii [8])
1 µg/mL: MIC (Coxiella burnetii [1]) | MIC (Coxiella burnetii [2]) | MIC (Coxiella burnetii [4]) | MIC (Coxiella burnetii [6]) | MIC (Coxiella burnetii [7]) | MIC (Coxiella burnetii [13]) | MIC (Coxiella burnetii [9]) | MIC (Coxiella burnetii [10]) | MIC (Coxiella burnetii [11]) | MIC (Coxiella burnetii [12])

CC[C@H]1OC(=O)[C@H](C)[C@@H](O[C@H]2C[C@@](C)(OC)[C@@H](O)[C@H](C)O2)[C@H](C)[C@@H](O[C@@H]2O[C@H](C)C[C@H](N(C)C)[C@H]2O)[C@](C)(OC)C[C@@H](C)C(=O)[C@H](C)[C@@H](O)[C@]1(C)O [CLARITHROMYCIN]
2 µg/mL: MIC (Coxiella burnetii [1]) | MIC (Coxiella burnetii [2]) | MIC (Coxiella burnetii [4]) | MIC (Coxiella burnetii [6]) | MIC (Coxiella burnetii [7]) | MIC (Coxiella burnetii [8]) | MIC (Coxiella burnetii [9]) | MIC (Coxiella burnetii [10]) | MIC (Coxiella burnetii [11]) | MIC (Coxiella burnetii [12])
4 µg/mL: MIC (Coxiella burnetii [3]) | MIC (Coxiella burnetii [5])

CC1COc2c(N3CCN(C)CC3)c(F)cc3c(=O)c(C(=O)O)cn1c23 (centres undefined) [OFLOXACIN]
1 µg/mL: MIC (Coxiella burnetii [1]) | MIC (Coxiella burnetii [2]) | MIC (Coxiella burnetii [4]) | MIC (Coxiella burnetii [6]) | MIC (Coxiella burnetii [7]) | MIC (Coxiella burnetii [8]) | MIC (Coxiella burnetii [9]) | MIC (Coxiella burnetii [10]) | MIC (Coxiella burnetii [11]) | MIC (Coxiella burnetii [12])
2 µg/mL: MIC (Coxiella burnetii [3]) | MIC (Coxiella burnetii [5])

O=C(O)c1cn(C2CC2)c2cc(N3CCNCC3)c(F)cc2c1=O [CIPROFLOXACIN]
4 µg/mL: MIC (Coxiella burnetii [1]) | MIC (Coxiella burnetii [2]) | MIC (Coxiella burnetii [4]) | MIC (Coxiella burnetii [6]) | MIC (Coxiella burnetii [7]) | MIC (Coxiella burnetii [8]) | MIC (Coxiella burnetii [9]) | MIC (Coxiella burnetii [10]) | MIC (Coxiella burnetii [11]) | MIC (Coxiella burnetii [12])

CC(=O)NC[C@H]1CN(c2ccc(N3CCOCC3)c(F)c2)C(=O)O1 [LINEZOLID]
2 µg/mL: MIC (Coxiella burnetii [1]) | MIC (Coxiella burnetii [2]) | MIC (Coxiella burnetii [4]) | MIC (Coxiella burnetii [6]) | MIC (Coxiella burnetii [7]) | MIC (Coxiella burnetii [8]) | MIC (Coxiella burnetii [9]) | MIC (Coxiella burnetii [10]) | MIC (Coxiella burnetii [11]) | MIC (Coxiella burnetii [12])
4 µg/mL: MIC (Coxiella burnetii [3]) | MIC (Coxiella burnetii [5])
